Source: US20170082610A1, “METHOD FOR PREDICTING TOXICITY OF A COMPOUND BASED ON NUCLEAR FACTOR-kB TRANSLOCATION” (priority 2014, published 2017)
Read-outs that look alike come from different tables or passages of the source.

Assays:
[1] = tested on: NF-κB p65; assay: HCS assay of compound-induced NF-κB p65 nuclear translocation in HPTC1 (Example 3); assay type: cell-based, human; details: for nuclear translocation of NF-κB (positive control sample): FIG. 9
Text: (§1) No. 58488852 (HPTC 1) and Lot. No. 61247356 (HPTC10), were bought from the American Type Culture Collection (ATCC, Manassas, Va., USA). HPTC6 were isolated from a nephrectomy sample obtained from the National University Health System (NUHS, Singapore). Only normal tissue without pathological changes was used, which was selected by a pathologist. […] No. PCS-400-030) supplemented with Renal Epithelial Cell Growth Kit (ATCC, Cat. No. PCS-400-040) and 1% Penicillin Streptomycin (Gibco, Cat. No. 15140-122). […] HK-2 and LLC-PK1cells were purchased from ATCC. These two cell lines were maintained in Dulbecco's Modified Eagle Medium (DMEM) supplemented with 10% fetal bovine serum (FBS) and 1% Penicillin Streptomycin. Approval for the work with human kidney samples (DSRB-E/11/143) and cell types (NUS-IRB Ref. Code: 09-[…]) had been obtained. All cells were incubated in a humidified atmosphere at 37° C. and 5% CO2. Cells were seeded into 384-well black plates with transparent bottom (Greiner, Cat. No. 781091). HPTC1 and HPTC6 were seeded at 50,000 cells/cm^2; HPTC10 were seeded at 100,000 cells/cm^2; HK-2 cells were seeded at 20,000 cells/cm^2 and LLC-PK1 cells were seeded at 10,000 cells/cm^2 to adjust for the different growth kinetics of the different cell types and batches used. All cells were cultivated for 3 days to achieve the formation of a differentiated simple epithelium before drug treatment overnight (16 hours). The concentrations of the 43 drugs screened were 1000, 500, 250, 125, 63, 16 and 1.6 μg/mL. Puromycin at 100 μg/mL and TNF-α at 100 ng/mL were used as positive controls. […] The images were automatically analysed by using MetaXpressTM image analysis software version 2.0 using the Translocation-Enhanced Module. […] The intensity ratios of the outer nuclear area versus the inner nuclear area were automatically quantified by the MetaXpressTM image analysis software (version 2.0). The final quantitative results for each data point were the average results from 36 images (4 replicates (wells) with 9 multi-channel images per well). […]

[2] = tested on: HPTC1; assay: Cell death in HPTC1 by HCS, based on counts of cell nuclei (Example 3); parameters: species or system human; details: HPTC1, 16 hours, 1.6-1000 μg/mL
Text: as §1, with “CO2.” for “CO2. Cells were seeded into 384-well black plates with transparent bottom (Greiner, Cat. No. 781091). HPTC1 and HPTC6 were seeded at 50,000 cells/cm^2; HPTC10 were seeded at 100,000 cells/cm^2; HK-2 cells were seeded at 20,000 cells/cm^2 and LLC-PK1 cells were seeded at 10,000 cells/cm^2 to adjust for the different growth kinetics of the different cell types and batches used. All cells were cultivated for 3 days to achieve the formation of a differentiated simple epithelium before drug treatment overnight (16 hours). The concentrations of the 43 drugs screened were 1000, 500, 250, 125, 63, 16 and 1.6 μg/mL. Puromycin at 100 μg/mL and TNF-α at 100 ng/mL were used as positive controls.”

[3] = tested on: NF-κB p65; assay: HCS assay of compound-induced NF-κB p65 nuclear translocation in HPTC (Example 2); assay type: cell-based, human
[4] = HPTC, 16 hours, 1.6-1000 μg/mL, 96-well plates, HCS images

Molecule | Qualitative analysis of NF-κB translocation (visual inspection) [3, 4] | further results
C=CC[C@@H]1/C=C(\C)C[C@H](C)C[C@H](OC)[C@H]2O[C@@](O)(C(=O)C(=O)N3CCCC[C@H]3C(=O)O[C@H](/C(C)=C/[C@@H]3CC[C@@H](O)[C@H](OC)C3)[C@H](C)[C@@H](O)CC1=O)[C@H](C)C[C@@H]2OC [Tacrolimus] |  | EC50 (compound concentration where nuclear translocation of NF-κB occurred in 50% of cells) ([1]; HPTC1, 16 hours, 1.6-1000 μg/mL): relatively low; IC50 (compound concentration where cell death occurred in 50% of cells; counts of cell nuclei) [2]: relatively low
O=[As]O[As]=O (stereo not shown) [arsenic (III) oxide] | positive | 
[Cl][Au] [gold (I) chloride] | positive | 
CC(=O)[O-].CC(=O)[O-].[Pb+2] [lead acetate] | positive | 
C[n+]1ccc(-c2cc[n+](C)cc2)cc1 [paraquat] |  | Qualitative analysis of NF-κB translocation (visual inspection) [3]: positive
[K+].[K+].[O]=[Cr](=[O])([O-])[O][Cr](=[O])(=[O])[O-] [potassium dichromate] | positive | 
COc1ccc(C[C@H](N)C(=O)N[C@H]2[C@@H](O)[C@H](n3cnc4c(N(C)C)ncnc43)O[C@@H]2CO)cc1 [puromycin] |  | nuclear translocation of NF-κB (positive control sample) ([1]; HPTC1, 16 hours): displayed nuclear translocation of NF-κB
TNF-α |  | nuclear translocation of NF-κB (positive control sample) ([1]; HPTC1, 100 ng/mL, 16 hours): displayed nuclear translocation of NF-κB
bismuth (III) oxide | positive | 
